The values below come from patent US9944589B2, “Cycloproplyamine derivatives useful as inhibitors of histone demethylases KDM1A” (Istituto Europeo de Oncologia S.r.L., priority 2012, dated 2018).

Molecules are shown by their SMILES. Where a name gives a salt, the structure may show the parent alone.

This assay has as its target T1, human recombinant KDM1A (LSD1)/CoRest (Homo sapiens, UniProt O60341).
T1 construct: made in house; host or cells: E. coli
As to the kind of experiment: Assay of enzyme inhibition of KDM1A (LSD1), Amplex UltraRed/peroxidase coupled. Format: biochemical. Particulars: 15 min preincubation, 4.5 μM mono-methylated H3-K4 peptide, range classes, read-out: IC50 [μM], KDM1A inhibition assay. The procedure:
The experiments were performed using a mono-methylated H3-K4 peptide containing 21 amino acids (custom synthesis done by Thermo Scientific) as substrate and in a 50 mM TRIS, pH 8, 0.05 mg/ml BSA buffer.
The demethylase activity was estimated under aerobic conditions and at RT by measuring the release of H2O2 produced during the catalytic process by the Amplex® UltraRed detection system coupled with peroxidase assay. Briefly, a fixed amount of KDM1A/CoRest complex was incubated at RT for 15 minutes in the absence and/or the presence of various concentrations of inhibitor (e.g. from 0 to 100 μM, depending on the inhibitor strength) and of Amplex® UltraRed detection system coupled with peroxidase assay. The inhibitors were tested twice in duplicates at each concentration. […] The conversion of the Amplex® Ultra Red reagent to resorufin was monitored in continuous by fluorescence (excitation at 540 nm, emission at 590 nm) using a microplate reader (Infinite 200, Tecan). Arbitrary units were used to measure the level of H2O2 produced in the absence and/or in the presence of inhibition. The maximum demethylase activity of KDM1A/CoRest was obtained in the absence of inhibitors and corrected for background fluorescence in the absence of KDM1A/CoRest. The IC50 was calculated using GraphPad Software.

With `N[C@]1(c2ccccc2)C[C@H]1c1ccc(NC(=O)Cc2ccccc2)cc1` (relative stereo) [Example A-105, N-[4-(trans-2-amino-2-phenyl-cyclopropyl)phenyl]-2-phenyl-acetamide hydrochloride], the IC50 is under 0.1 µM.

On to `N[C@]1(c2ccccc2)C[C@H]1c1ccc(NC(=O)c2cccc(-c3ccccc3)c2)cc1` (relative stereo) [Example A-106, N-[4-(trans-2-amino-2-phenyl-cyclopropyl)phenyl]-3-phenyl-benzamide 2,2,2-trifluoroacetic acid], for which the IC50 was under 0.1 µM.

Turning to `N[C@]1(c2ccccc2)C[C@H]1c1ccc(NC(=O)Cc2ccc3ccccc3c2)cc1` (relative stereo) [Example A-107, N-[4-(trans-2-amino-2-phenyl-cyclopropyl)phenyl]-2-(2-naphthyl) acetamide 2,2,2-trifluoroacetic acid], the half-maximal inhibitory concentration (IC50) is under 0.1 µM.

`N[C@]1(c2ccccc2)C[C@H]1c1ccc(NC(=O)c2ccncc2)cc1` (relative stereo) [Example A-108, N-[4-(trans-2-amino-2-phenyl-ccyclopropyl)phenyl] pyridine-4-carboxamide dihydrochloride]: the IC50 was under 0.1 µM.

For the molecule `CN1CCC(c2ccc(C(=O)Nc3ccc([C@@H]4C[C@]4(N)c4ccccc4)cc3)cc2)CC1` (relative stereo) [Example A-109, N-[4-(trans-2-amino-2-phenyl-cyclopropyl]phenyl)-4-(1-methyl-4-piperidyl) benzamide dihydrochloride], the IC50 was under 0.1 µM.

Take `CN1CCN(c2ccc(C(=O)Nc3ccc([C@@H]4C[C@]4(N)c4ccccc4)cc3)cc2)CC1` (relative stereo) [Example A-110, N-[4-(trans-2-amino-2-phenyl-cyclopropyl)phenyl]-4-(4-methylpiperazin-1-yl)benzamide hydrochloride]: the IC50 is under 0.1 µM.

As for `N[C@]1(c2ccccc2)C[C@H]1c1ccc(NC(=O)c2cccc(N3CCOC3=O)c2)cc1` (relative stereo) [Example A-111, N-[4-(trans-2-amino-2-phenyl-cyclopropyl)phenyl]-3-(2-oxooxazolidin-3-yl)benzamide hydrochloride], the 50% inhibitory concentration (IC50) is under 0.1 µM.

Take `N[C@]1(CCc2ccccc2)C[C@H]1c1ccc(NC(=O)c2ccncc2)cc1` (relative stereo) [Example A-112, N-[4-(trans-2-amino-2-phenethyl-cyclopropyl)phenyl] pyridine-4-carboxamide hydrochloride]: the half-maximal inhibitory concentration (IC50) was under 0.1 µM.

Take `CC[C@@]1(N)C[C@H]1c1ccc(NC(=O)c2ccc(NCCO)cc2)cc1` (relative stereo) [Example A-120, N-[4-(trans-2-amino-2-ethyl-cyclopropyl]phenyl)-4-(2-hydroxyethylamino)benzamide hydrochloride]: the IC50 lay in the range of 0.1 to 1 µM.

As for `CC[C@@]1(N)C[C@H]1c1ccccc1-n1cc(-c2ccccc2)nn1` (relative stereo) [Example A-125, trans 1-ethyl-2-[2-(4-phenyltriazol-1-yl)phenyl]cyclopropan amine hydrochloride], the IC50 lay in the range of 0.1 to 1 µM.

Take `COc1cccc([C@@H]2C[C@]2(N)Cc2ccccc2)c1` (relative stereo) [Example A-129, trans 1-Benzyl-2-(3-methoxyphenyl)cyclopropanamine hydrochloride]: the IC50 lay within 0.1 to 1 µM.

`CC[C@@]1(N)C[C@H]1c1cccc(N2CCN(c3ccccc3)C2=O)c1` (relative stereo) [Example A-130, 1-[3-[(trans-2-amino-2-ethyl-cyclopropyl]phenyl]-3-phenyl-imidazolidin-2-one hydrochloride]: the IC50 was 0.1 to 1 µM.

As for `CC[C@@]1(N)C[C@H]1c1ccc(-n2cc(-c3ccccc3)nn2)cc1` (relative stereo) [Example A-131, trans-1-Ethyl-2-[4-(4-phenyltriazol-1-yl)phenyl]cyclopropanamine hydrochloride], the IC50 was under 0.1 µM.

As to `N[C@]1(CNC2CC2)C[C@H]1c1ccccc1` (relative stereo) [Example B-4, trans 1-[(cyclopropylamino)methyl]-2-phenyl-cyclopropanamine dihydrochloride], the IC50 fell in the range of 1 to 5 µM.

As for `CN1CCN(C[C@@]2(N)C[C@H]2c2ccccc2)CC1` (relative stereo) [Example B-5, trans-1-[(4-methylpiperazine-1-yl)methyl]-2-phenyl-cyclopropanamine trihydrochloride], the IC50 was 1 to 5 µM.

As for `CC[C@@]1(NCC(=O)N2CCN(C)CC2)C[C@H]1c1ccccc1` (relative stereo) [Example C-6, trans-2-[[(1-ethyl-2-phenyl-cyclopropyl]amino]-1-(1-methylpiperazin-1-yl)ethanone trifluoroacetate], the IC50 was in the range of 0.1 to 1 µM.

Regarding `CC[C@@]1(NCc2ccccc2)C[C@H]1c1ccccc1` (relative stereo) [Example C-13, trans-N-benzyl-1-ethyl-2-phenyl-cyclopropanamine hydrochloride], the IC50 fell in the range of 1 to 5 µM.

As for `C[C@@]1(NCc2cnc(N)nc2)C[C@H]1c1ccccc1` (relative stereo) [Example C-19, 5-{[(trans-1-methyl-2-phenyl-cyclopropyl)amino]methyl} pyrimidin-2-amine dihydrochloride], the IC50 was in the range of 0.1 to 1 µM.

Take `COc1ncccc1CN[C@]1(C)C[C@H]1c1ccccc1` (relative stereo) [Example C-20, trans-N-[(2-methoxy-3-pyridyl)methyl]-1-methyl-2-phenyl-cyclopropanamine]: the IC50 is 1 to 5 µM.

For `C[C@@]1(NCc2ccc3c(c2)OCCO3)C[C@H]1c1ccccc1` (relative stereo) [Example C-21, trans-N-(2,3-dihydro-1,4-benzodioxin-6-ylmethyl)-1-methyl-2-phenyl-cyclopropanamine 2,2,2-trifluoroacetic acid], the IC50 is 0.1 to 1 µM.

`CN1CCN(C(=O)CN[C@]2(c3ccccc3)C[C@H]2c2ccccc2)CC1` (relative stereo) [Example C-23, 2-[[trans-1,2-diphenylcyclopropyl]amino]-1-(4-methylpiperazin-1-yl)ethanone dihydrochloride]: the IC50 fell in the range of 0.1 to 1 µM.

Regarding `CN1CCN(C(=O)CN[C@]2(C)C[C@H]2c2ccccc2)CC1` (relative stereo) [Example C-27, 2-[[trans-1-methyl-2-phenyl-cyclopropyl]amino]-1-(4-methylpiperazin-1-yl)ethanone dihydrochloride], the IC50 is under 0.1 µM.

Turning to `CN1CCN(C(=O)CN[C@@]2(C)C[C@H]2c2ccccc2)CC1` (relative stereo) [Example C-28, 2-[[cis-1-methyl-2-phenyl-cyclopropyl]amino]-1-(4-methylpiperazin-1-yl)ethanone dihydrochloride], the IC50 was in the range of 1 to 5 µM.

With `CN[C@]1(C)C[C@H]1c1ccccc1` (relative stereo) [Example C-29, trans-N,1-dimethyl-2-phenyl-cyclopropanamine hydrochloride], the IC50 is 1 to 5 µM.

In the case of `CC[C@@]1(NCCN2CCCCC2)C[C@H]1c1ccccc1` (relative stereo) [Example C-31, trans-1-Ethyl-2-phenyl-N-[2-(1-piperidyl)ethyl]cyclopropanamine dihydrochloride], the IC50 was 0.1 to 1 µM.

The IC50 is the concentration needed to halve the response being measured.
